The record followed here is PubChem BioAssay AID2305 (GlaxoSmithKline (GSK), 2010).

The test system of the assay is P. falciparum 3D7 growth, pLDH absorbance. In words: P. falciparum 3D7 growth inhibition, dose response, strain 3D7 (AID 2305).

As for `COC(=O)c1ccc2nc(-c3ccc(/C=C/C(=O)NCc4ccc(Cl)c(Cl)c4)cc3)[nH]c2c1`, the IC50 (usually the concentration needed to halve the response being measured) was 1340 nM.

For the compound `Cc1ccc2c(c1)C1(CC(=O)N(CCc3scnc3C)C1=O)C(=O)N2Cc1ccccc1` (centres undefined), the concentration for half-maximal inhibition (IC50) worked out at 1250 nM.

`Cc1[nH]c(C)c(-c2ccc(OCc3ccccc3C(F)(F)F)nc2)c(=O)c1Br` showed an IC50 of 20 nM.

In turn, `CC(C)N1CCC(N(Cc2ccc(-c3ccc(C(F)(F)F)cc3)cc2)C(=O)Cn2c(CCc3cccc(F)c3F)cc(=O)c3cn(C)nc32)CC1` returned an IC50 of 1170 nM.

With `Cc1cccc2[nH]c(-c3cccc(-c4ccc(NC(=O)Cc5ccon5)cc4)c3)nc12`, the IC50 was found to be 1090 nM.

On to `Cc1ncccc1-c1cccc2c(NC(=O)Nc3ccc4nccc(N5CCN(C)CC5)c4c3)cccc12`, for which the IC50 is 630 nM.

`CN1CCC(C(=O)Nc2cccc(-c3ccc(-c4nc5ccccc5[nH]4)cc3)c2)CC1`: the IC50 was 1090 nM.

On to `O=C(NCCCCN1CCN(c2ccc3c(c2)CCC3)CC1)c1ccc(NC(=O)c2ccc(Cl)cc2)cc1`, for which the IC50 came to 680 nM.

Take `O=C(Nc1cccc(-c2ccc(-c3nc4ccc(F)cc4[nH]3)cc2)c1)c1csnn1`: the IC50 was 280 nM.

Take `Cc1csc(-c2ncc(OC[C@@H](N)Cc3ccccc3)cc2-c2ccc3n[nH]c(C)c3c2)c1`: the IC50 amounted to 840 nM.

Compound `COc1ccc(S(=O)(=O)Nc2ccc(C(=O)NCc3ccccc3C(F)(F)F)cc2)cc1N1CCN(CC2CC2)CC1` came in with an IC50 of 1150 nM.

Compound `COc1ccc(NC(=O)Nc2ccc(-c3ccc(-c4nc5ccccc5[nH]4)cc3)cc2)cc1` gave a 50% inhibitory concentration (IC50) of 510 nM.

In the case of `Cc1cnc(NCCc2ccc(F)cc2)nc1N[C@@H](CC(C)C)C(=O)Nc1ccccc1`, the IC50 amounted to 970 nM.

For the compound `c1ccc(CN2CCN(CCCCNc3c4ccccc4nc4ccccc34)CC2)cc1`, the IC50 is 120 nM.

Compound `COc1ccc2ncc(F)c(CCN3C[C@H](CNCc4ccc5oc(=O)ccc5c4)[C@H](O)C3)c2n1` came in with an IC50 of 950 nM.

Regarding `COc1ccc(CNC2CCN(C)CC2)cc1-c1ccc(OC)c(S(=O)(=O)NCc2ccccc2)c1`, the IC50 amounted to 950 nM.

As to `O=C(Nc1cccc(OCCN2CCCC2)c1)Nc1ccc(Cl)c(Cl)c1`, the IC50 was 770 nM.

Take `Cn1cc(C2CCN(CCCCNC(=O)c3sc(-c4ccc(C(F)(F)F)cc4)nc3CO)CC2)c2ccccc21`: the IC50 worked out at 1060 nM.

For `c1ccc(CNc2nc(NCCc3cnc[nH]3)nc(NCc3cccc4ccccc34)n2)cc1`, the IC50 came out at 1110 nM.

As for `O=C(C=Cc1ccc(Cl)c(Cl)c1)NCCCCCN1CCC(CCNC(=O)c2sc3ccccc3c2Cl)CC1`, the IC50 came out at 1010 nM.

Compound `O=C(/C=C/c1ccc(Cl)c(Cl)c1)NCc1ccc(CN2CCC(c3c[nH]c4ccccc34)CC2)cc1` came in with an IC50 of 710 nM.

For `FC(F)(F)c1ccc2nc(-c3ccc(-c4ccc(CN5CCN(c6cnccn6)CC5)cc4)s3)[nH]c2c1`, the IC50 was 650 nM.

`O=C(Nc1cccc(-c2cccc(-c3nc4ccc(F)cc4[nH]3)c2)c1)Nc1ccc(F)c(F)c1F`: the IC50 was found to be 90 nM.

Compound `OC1CCC(Nc2ccc3ncc(-c4ccc(Cl)cc4)n3n2)CC1` (centres undefined) came in with an IC50 of 820 nM.

Consider `CCC[C@@H]([C@@H](CC1CCCCC1)C(=O)N[C@H](C(=O)Nc1nccc(N)n1)C(C)(C)C)N(O)C=O`, for which the IC50 was 530 nM.

With `COc1ccc2nc(-c3ccccc3)cc(NCCN(C)C)c2c1`, the IC50 worked out at 730 nM.

`COc1ccc(-c2cccc(NC(=O)c3ccc(C#N)cc3)c2)cc1CNC(C)C` yielded a concentration for half-maximal inhibition (IC50) of 810 nM.

`Cc1cnc(C(=O)Nc2cccc(-c3cccc(-c4nc5c(C)cccc5[nH]4)c3)c2)cn1` registered an IC50 of 580 nM.

`Cc1cccc2[nH]c(-c3ccc(-c4ccc(CNCc5ccc(CN)cc5)cc4)s3)nc12` had an IC50 of 440 nM.

Consider `Cc1ccc(/C=C/C(=O)N2CCC(CCN3CCC(c4c[nH]c5ccccc45)CC3)CC2)cc1C`, for which the IC50 was determined as 930 nM.

`O=C(NCCCc1ccccc1)c1csc(C2CCCN(C(=O)c3ccc(O)c(-c4ccccc4)c3)C2)n1` (centres undefined): the IC50 stood at 910 nM.

Consider `CC(C)(C)CC(=O)Nc1ccc(Nc2cc(-c3ccncc3)cc3ncc(C(N)=O)cc23)cc1`, for which the IC50 is 700 nM.

Compound `CCOc1ccc(Br)cc1/C=C/C(=O)Nc1ccc(C2CCN(C)CC2)cc1` showed an IC50 of 450 nM.

Compound `O=C(c1ccccc1[N+](=O)[O-])N(Cc1ccccc1)c1ccccn1` showed an IC50 of 190 nM.

Turning to `CN1CCC(C(=O)N(Cc2ccc(-c3ccc(CNCCc4ccccc4)cn3)cc2)C2Cc3ccccc3C2)CC1`, the IC50 came out at 1060 nM.

`CC1CC(NCCCNc2cc(=O)c3ccccc3[nH]2)c2c1cc(Cl)c(Cl)c2Cl` (centres undefined) registered an IC50 of 840 nM.

In the case of `OC[C@H]1CCCN1CC#Cc1cc2c(Nc3ccc(OCc4cccc(F)c4)c(Cl)c3)ncnc2s1`, the IC50 stood at 1210 nM.

Consider `NC(N)=NN=C1C=Cc2cccc3cccc1c23`, for which the IC50 was found to be 610 nM.

Take `Oc1ccccc1CN1CCC(CCOC(c2ccccc2)c2ccc(Cl)cc2)CC1` (centres undefined): the IC50 is 740 nM.

On to `CN(C)CCCc1cc(NC(=O)Nc2cccc(Cl)c2Cl)ccc1I`, for which the half-inhibitory concentration (IC50) stood at 540 nM.

In turn, `COc1ccc(CNCc2cccc(-c3cccc(-c4nc5c(C)cccc5[nH]4)c3)c2)cc1` registered a half-maximal inhibitory concentration (IC50) of 130 nM.

Compound `Cc1ccc(C(C)C)c(Oc2ccc3nc(N)nc(N)c3c2)c1` returned an IC50 of 10 nM.

Compound `Cc1cccc2[nH]c(-c3cccc(-c4cccc(NC(=O)c5cccnc5Cl)c4)c3)nc12` yielded an IC50 of 710 nM.

Compound `CN(C)CCOc1cc(NC(=O)c2ccc(-c3ccc(Cl)cc3Cl)cc2)ccc1-c1ccccc1` registered an IC50 of 910 nM.

For `N#Cc1ccc(-c2cnc3ccc(NCc4ccc(S(N)(=O)=O)cc4)nn23)cc1`, the IC50 stood at 780 nM.

In turn, `CC[C@H]1C[N+]2([O-])CC[C@@H]1C[C@H]2[C@H](O)c1cc(-c2ccccc2)nc2ccc(OC)cc12` yielded an IC50 of 840 nM.

For the compound `COc1ccc2nccc([C@@H](O)CN3CCC(NC(=O)C(c4ccsc4)N4CCN(c5ccccc5OC)CC4)CC3)c2c1` (some centres undefined), the IC50 came out at 830 nM.

As to `CN(C)Cc1cccc(-c2ccc(Nc3nccc(NCC(O)c4ccccc4)n3)cc2)c1` (centres undefined), the IC50 turned out to be 140 nM.

In the case of `O=C(NC1CCC(CN2CCC(c3c[nH]c4ccccc34)CC2)CC1)c1cc(-c2ccc(F)cc2F)ccc1O` (centres undefined), the IC50 was determined as 360 nM.

With `O=C(Nc1cccc(Cl)c1)N[C@H]1CCN(Cc2ccc(OCCCN3CCCCC3)cc2)C1`, the IC50 was 730 nM.

For `CN(C)CCN(C)Cc1ccc(-c2cccc(-c3nc4ccccc4[nH]3)c2)cc1`, the IC50 was found to be 750 nM.

As to `COc1ccccc1C(C)NCC(=O)Nc1cc(C(F)(F)F)ccc1Cl` (centres undefined), the IC50 was 780 nM.

In turn, `Cc1ccc(-c2ccc(Cl)cc2Oc2cnc(N)nc2N)o1` yielded an IC50 of 1080 nM.

For the compound `NS(=O)(=O)c1ccc(CNC(=O)c2cnc3c(O)cccc3c2Nc2cccc(NC(=O)c3ccc(Cl)c(Cl)c3)c2)cc1`, the IC50 was 1720 nM.

`COc1ccc(-c2cnc(NCc3ccccc3)nc2)cc1CNC1CCN(C)CC1` yielded an IC50 of 780 nM.

Turning to `COc1cc2ccccc2cc1OCCCN1CCN(CC(c2ccc(F)cc2)N2CCN(C(C)C)CC2)CC1` (centres undefined), the IC50 was 750 nM.

In turn, `O=C(Nc1ccc(-n2ccc(C(F)(F)F)n2)cc1)c1cccs1` came in with a concentration for half-maximal inhibition (IC50) of 1070 nM.

`COc1ccc(CCNc2nc(NCCc3cnc[nH]3)nc(NCc3cccc4ccccc34)n2)cc1OC` yielded an IC50 of 540 nM.

`O=S(=O)(Nc1ccc2nccc(N3CCNCC3)c2c1)c1ccc2c(Cl)cccc2c1`: the IC50 worked out at 570 nM.

`CCN(CC)CCNC(=O)c1ccc(NC(=O)c2cc3c(C)nn(-c4ccc(Cl)cc4)c3s2)cc1` came in with an IC50 of 250 nM.

In the case of `COc1cc(Cc2cnc(N)nc2N)cc(OC)c1OCCCCC(=O)O`, the IC50 was 1140 nM.

`OC(CNc1ccnc(Nc2ccc(Cl)cc2)n1)c1ccccc1C(F)(F)F` (centres undefined) showed an IC50 of 790 nM.

`CC(C)N1CCC(N(Cc2ccc(-c3ccc(C(F)(F)F)cc3)cc2)C(=O)CCCn2c(CCc3cccc(F)c3F)nc(=O)c3ccccc32)CC1`: the IC50 stood at 970 nM.

In the case of `COc1ccc(CCn2c(=N)c(C(=O)NCc3ccc(C)cc3)cc3c(=O)n4ccccc4nc32)cc1`, the IC50 was 1130 nM.

For `CSc1cccc(NC(=O)Nc2ccc(I)c(OCCN(C)C)c2)c1`, the IC50 was 690 nM.

Consider `COc1ccc(OC)c2c1CCN(CCN1CCC(C(=O)Nc3ccc(C(=O)Nc4ccc(Cl)cc4)cc3)CC1)C2`, for which the IC50 was 580 nM.

`O=C(NCCN1Cc2ccccc2C1=O)c1ccc(Oc2ccc(C(=O)NCCN3Cc4ccccc4C3=O)cc2)cc1`: the half-maximal inhibitory concentration (IC50) worked out at 360 nM.

The compound `O=C(Nc1ccc(-c2nc3ccccc3[nH]2)cc1)C1CCN(Cc2ccc(F)cc2)CC1` registered an IC50 of 840 nM.

With `CS(=O)(=O)CCN(CCS(C)(=O)=O)Cc1ccc(-c2ccc3ncnc(Nc4ccc(OCc5cccc(F)c5)c(Cl)c4)c3c2)o1`, the 50% inhibitory concentration (IC50) was 1020 nM.

Compound `Cc1sc(CNCCCNc2cc(=O)c3ccccc3[nH]2)c(C(F)(F)F)c1C` yielded an IC50 of 730 nM.

Compound `CC(C)/C(=C(/F)CN1C(=O)C(NC(=O)c2cc3ccccc3[nH]2)C(=O)N(c2ccccc2)c2ccccc21)c1ccccc1` (centres undefined) had an IC50 of 700 nM.

In the case of `O=S(=O)(NCCN1CCCC1)c1ccc(-c2ccc(CN3Cc4ccccc4C3)cc2)s1`, the IC50 turned out to be 930 nM.

For the compound `CNc1ccc(CNCc2cccc(-c3ccc(-c4nc5c(C)cccc5[nH]4)cc3)c2)cc1`, the IC50 worked out at 660 nM.

`Nc1nc(N)c2c(ccc3c2ccn3CCCCO)n1` showed an IC50 of 120 nM.

In the case of `O=C(NCCCCN1CCC(c2ccc3c(c2OCCO)CCCC3)CC1)c1ccc2oc(-c3ccc(C(F)(F)F)cc3)cc2c1`, the IC50 came to 340 nM.

In turn, `OCC1CCN(Cc2ccc(-c3cccc(-c4nc5ccc(C(F)(F)F)cc5[nH]4)c3)cc2)CC1` yielded an IC50 of 480 nM.

In turn, `CCNC(=O)Nc1cccc(-c2ccc(-c3nc4c(C)cccc4[nH]3)s2)c1` came in with a 50% inhibitory concentration (IC50) of 770 nM.

Compound `CN1CCN(CC2(Nc3nccc(NCCc4cn(C)c5ccccc45)n3)CCCCC2)CC1` yielded an IC50 of 1810 nM.

Consider `CC(Cc1ccc(OCCN2CCN(c3ccccc3)CC2)cc1)NCC(O)c1cccc(Cl)c1F` (centres undefined), for which the half-maximal inhibitory concentration (IC50) is 870 nM.

Consider `O=C(Nc1ccc(Cl)cc1)Nc1ccc(Cn2ncc(N3CCCNCC3)c(Cl)c2=O)cc1`, for which the IC50 was found to be 780 nM.

Compound `O=C(Nc1ccc(OC2CCN(Cc3ccc(F)cc3)C2)c(Cl)c1)c1ccoc1` (centres undefined) returned an IC50 of 940 nM.

In the case of `CN1CCC(N(Cc2ccc(-c3cnc(NCc4ccccc4)nc3)cc2)S(=O)(=O)c2ccccc2)CC1`, the IC50 worked out at 780 nM.

For the compound `CCOC(=O)c1[nH]c(-c2cccnc2)nc1NC(=S)NCc1ccccc1`, the IC50 was 710 nM.

The compound `O=C(C=Cc1ccc(Cl)c(Cl)c1)NCCCCCN1CCC(CCNC(=O)c2ccc3c(c2)OCO3)CC1` showed an IC50 of 690 nM.
